How the values were obtained:
M2PYK [1] = molecular target: T1, M2PYK (Homo sapiens, UniProt P14618); test: M2PYK activity at sub-saturating PEP and ADP: amino-acid IC50/Ki and serine versus alanine/phenylalanine competition; type: biochemical; settings: for Ki: calculated as IC50/2 (uncompetitive inhibitors), read-out: inhibitor constant (Ki) against M2PYK; for IC50: sub-saturating PEP and ADP, 0 µM serine, read-out: IC50 against M2PYK
T1 construct: and N-terminal domain (blue, residues 13–43. Residues 1–12, as well as additional residues from the His6-tagged construct); made in house; host or cells: Escherichia coli BL21(DE3), pET28a
Experimental: (§1) For the determination of kinetics of M2PYK in the absence/presence of amino acid modulators, enzymatic activity assays were performed as follows. A 5 µl aliquot of 0.002 mg/ml M2PYK in PBS-CM was incubated with different concentrations of amino acids in PBS-CM supplemented with 1 mM dithiothreitol at 37°C at pH 7.4 for 10 min. […] For these uncompetitive inhibitors the Ki values were calculated to be equal to IC50/2.
The decrease in absorbance at 340 nm was measured for 5 min at 37°C using a plate reader. […]

M2PYK [2] = molecular target: T1, M2PYK; test: ELISA with anti-M2PYK antibody binding the C–C interface (monomer–tetramer equilibrium); settings: 10 mM amino acid; 0.0039–2.5 µg/ml M2PYK; 1 h, pH 7.4, room temperature
From the text: For the production of specific antibodies, a peptide immunogen (Supplementary Figure S1) specific for M2PYK was covalently conjugated with the carrier protein BSA, and injected into Balb/c female mice (6–7 weeks) at 2-week intervals. A mouse showing best selectivity for M2PYK was chosen as a spleen donor. After the production of a hybridoma, a cell line secreting a specific monoclonal antibody was screened and expanded. The specific monoclonal antibody against M2PYK was identified, purified and conjugated with horseradish peroxidase (HRP) for further ELISAs.
A stock solution of anti-His-tag antibody in carbonate buffer (pH 9.6) was coated onto wells at 50 µl/well at 4°C overnight. The wells were then blocked with 100 µl/well of PBS/Tween 20/3% BSA for 1 h at room temperature. Titrated M2PYK (2.5–0.0039 µg/ml) was incubated with or without ligands (10 mM for all amino acids and 1 mM for FBP) in PBS/Tween 20/3% BSA at room temperature for 1 h. Then, 100 µl of the solution was added to each prepared well for an incubation of 1 h. Afterwards, a 100 µl aliquot of PBS/Tween 20/3% BSA containing 4 µg/ml HRP-conjugated M2PYK antibody was added to each well and incubated for 1 h at room temperature. Electrochemiluminescence solution was added at 50 µl/well to develop the luminescence, which was read immediately with a plate reader. Three washes with PBS/Tween 20/3% BSA were performed between each step.
To investigate the effect of ligand binding on monomer–tetramer equilibrium at lower protein concentrations, we developed an ELISA assay. […] As the epitope is hidden in the tetrameric form of M2PYK, antibody binding on the C–C interface of M2PYK reflects the amount of monomer/dimer but not tetramer. The ELISA tests were performed using low concentrations of His6-M1/2PYK (0.0039–2.5 µg/ml) incubated with no ligand or 10 mM of each amino acid for 1 h in PBS-CM at pH 7.4 at room temperature. The incubated solutions were added to 96-well plates precoated with anti-His-tag antibodies. HRP-conjugated M2PYK antibodies were then incubated, followed by luminescence reading.

M2PYK [3] = molecular target: T1, M2PYK; test: X-ray co-crystal structures of M2PYK with amino acids; settings: wild-type M2PYK co-crystallised with the amino acid
Experimental: Single crystals of M2PYK were obtained at 17°C by vapour diffusion using the hanging-drop technique. The drops were formed by mixing 1.5 µl of wild-type M2PYK (20 mg/ml) solution containing ligands with 1.5 µl of reservoir solution (composed of 11–16% PEG 3350, 100 mM sodium cacodylate, 50 mM MgCl2, and 100 mM KCl). […] The pH for obtaining optimal crystals was 7.2–7.8. Before data collection, crystals were dipped in a freezing solution consisting of reservoir solution supplemented with the same concentration of ligands as in the original solution, as well as up to 35% PEG 3350, which eliminated the appearance of ice rings. Diffraction data were collected at the Diamond synchrotron radiation facility in Oxfordshire, U.K. on beamline I03 (for the M2PYK/Ala structure), I04-1 (for the M2PYK/Phe and the M2PYK/Trp structures), and I24 (for the M2PYK/Ser structure). All datasets were obtained from a single crystal flash-frozen in liquid nitrogen. A more detailed description and discussion of the crystallisation trials is in the Supplementary Material.
All four M2PYK structures were solved by molecular replacement using the program PHASER [40]. A monomer (Chain A) from the previously determined tetrameric structure of M2PYK (in R-state, PDB ID: 4B2D) served as the search model for the M2PYK/Ser structure. Chain A of a different M2PYK structure (in T-state, PDB ID: 4FXJ) was used as the search model for the M2PYK/Phe, M2PYK/Ala, and M2PYK/Trp structures. There were clear molecular replacement solutions for all structures. The resulting models were then subjected to 10 cycles of rigid body refinement using the program REFMAC [41]. Afterwards, manual changes were made to models to adjust side chain conformations and to add additional residues to the N terminus using COOT [42]. The models were then subjected to several rounds of translation libration screw refinement and restrained refinement, and ligand molecules were added where clear unbiased Fo–Fc electron density was observed. Water molecules were added to the model using COOT, and after several rounds of restrained refinement, R/Rfree values converged.

M2PYK [4] = molecular target: T1, M2PYK; test: Enzyme kinetics of M2PYK for PEP with saturating ADP in presence of amino acids; type: biochemical; settings: kinetic curves at different inhibitor concentrations
Experimental: as §1, with “min. Then, the same volume of assay buffer [PBS-CM supplemented with 10 mM MgCl2, 100 mM KCl, 1 mM NADH, 40 µmol/min ml LDH, as well as saturating ADP (4 mM) and titrated substrate PEP (0.15–10 mM)] was added.” for “min.”
Values of the kinetic parameters (Vmax, K0.5(PEP), and nH) were determined by fitting the equation below to the data. V=Vmax×[PEP]^nH/K0.5nH+[PEP]^nH The Lineweaver–Burk plots were fit using the equation below: Y=K0.5nH+(1/x)^nH/Vmax×(1/x)^nH The Berkley Madonna software (http://www.berkeleymadonna.com/) was used to model approximate proportions of monomer and tetramer M2PYK at given total protein concentrations. The calculation was based on a simplified tetramer [T] monomer [M] equilibrium: [T]⇌[M]+[M]+[M]+[M]withKd=[M]^4/[T] […] The association rate constant was scaled to give a Kd of 0.9 µM, which was estimated from analytical gel chromatography results.
The kinetic curves are shown in Figure 4 and Supplementary Figure S4.

M2PYK [5] = molecular target: T1, M2PYK; test: Analytical gel chromatography of M2PYK oligomerisation/dissociation; settings: 10 mM amino acid; 0.1 mg/ml M2PYK; PBS-CM pH 7.4, room temperature, 12 h
Experimental: Analytical gel chromatography was performed to characterise the oligomerisation/dissociation of M2PYK in the presence/absence of different amino acids. Aliquots of 400 µl of 0.1 mg/ml purified M2PYK were incubated with or without 10 mM amino acids in PBS-CM at room temperature at pH 7.4 overnight. After the incubation, samples were loaded independently onto a Superdex 200 PC 3.2/30 gel-filtration column. Samples of 25 µl were injected, and the column flow rate was maintained at 0.1 ml/min. Protein peaks were monitored using the absorbance at both 280 and 214 nm. The retention volumes for the M2PYK peaks were the same as those identified by SEC-MALS as monomer and tetramer peaks (using the same Superdex 200 column) in our previous study.
Analytical gel chromatography was used to investigate the effects of amino acids on the oligomerisation of M2PYK. […] Dissociation studies of M2PYK using SEC-MALS [13] and ultracentrifugation show the predominant forms in solution are tetramer and monomer.

M2PYK [6] = tested on: M2PYK; set-up: method as in Chaneton et al. 2012; settings: 4 nM M2PYK; ref Chaneton et al. 2012; cited from earlier work
M1PYK [7] = molecular target: T2, M1PYK (Homo sapiens, UniProt P14618); test: PYK activity modulator screen (LDH-coupled enzymatic activity assay); type: biochemical; settings: 2.5 mM ligand, sub-saturating PEP and ADP; for inhibition of M1PYK activity: pH 7.4, 37°C, relative to no ligand
T2 construct: made in house; host or cells: Escherichia coli BL21(DE3), pET28a
Experimental: (§2) For the identification of PYK activity modulators, enzymatic activity assays were performed as follows. A 1.9 µl aliquot of 20 mg/ml M1 or M2PYK in PBS-CM was added individually into […] of different amino acids at 5 mM in PBS-CM at pH 7.4 followed by an incubation at 37°C for 10 min. Then, the same volume of assay buffer [PBS-CM supplemented with 10 mM MgCl2, 100 mM KCl, 1 mM NADH, 40 µmol/min ml lactate dehydrogenase (LDH), as well as sub-saturating substrates PEP (1 mM) and ADP (0.8 mM)] was added into the protein solution and mixed (so the concentrations of all reagents were halved). The decrease in absorbance at 340 nm (the absorbance of NADH) was measured for 5 min at 37°C using a plate reader. PEP, ADP, LDH, NADH, FBP and all amino acids were from Sigma–Aldrich.
(§3) FBP was used as a positive control. The reaction was performed after pre-incubation in the presence of sub-saturating substrates in PBS at pH 7.4 at 37°C as described in Experimental Procedures.

M2PYK [8] = molecular target: T1, M2PYK; test: as above; type: biochemical; settings: 2.5 mM ligand, sub-saturating PEP and ADP; for activation of M2PYK activity: pH 7.4, 37°C, relative to no ligand
Experimental: as §2, §3

M2PYK [9] = molecular target: T1, M2PYK; set-up: method as in PMID 23530218; settings: previously shown; cited from earlier work
cell proliferation = tested on: cell proliferation; set-up: method as in PMID 23530218; settings: via activation or inhibition of M2PYK; cited from earlier work
M1PYK [10] = tested on: M1PYK; set-up: method as in PMID 5166752, PMID 16634623; settings: cited from earlier work

T1 sequence (P14618 whole entry, the tested form may be a part): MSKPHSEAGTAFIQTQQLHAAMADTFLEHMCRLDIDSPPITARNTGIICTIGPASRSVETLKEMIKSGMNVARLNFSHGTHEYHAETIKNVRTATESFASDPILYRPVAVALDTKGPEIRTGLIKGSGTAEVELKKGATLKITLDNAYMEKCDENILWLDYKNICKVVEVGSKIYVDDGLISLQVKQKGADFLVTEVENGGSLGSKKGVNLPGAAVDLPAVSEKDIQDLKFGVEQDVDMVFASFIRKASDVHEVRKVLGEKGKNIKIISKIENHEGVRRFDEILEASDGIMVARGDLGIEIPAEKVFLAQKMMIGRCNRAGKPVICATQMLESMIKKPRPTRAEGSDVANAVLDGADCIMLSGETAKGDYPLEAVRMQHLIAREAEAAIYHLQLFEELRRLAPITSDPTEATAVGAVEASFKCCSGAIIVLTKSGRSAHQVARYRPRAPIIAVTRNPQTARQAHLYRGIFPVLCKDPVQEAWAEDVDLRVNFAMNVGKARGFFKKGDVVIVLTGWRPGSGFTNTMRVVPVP
T2 sequence (P14618 1-531 isoform P14618-2): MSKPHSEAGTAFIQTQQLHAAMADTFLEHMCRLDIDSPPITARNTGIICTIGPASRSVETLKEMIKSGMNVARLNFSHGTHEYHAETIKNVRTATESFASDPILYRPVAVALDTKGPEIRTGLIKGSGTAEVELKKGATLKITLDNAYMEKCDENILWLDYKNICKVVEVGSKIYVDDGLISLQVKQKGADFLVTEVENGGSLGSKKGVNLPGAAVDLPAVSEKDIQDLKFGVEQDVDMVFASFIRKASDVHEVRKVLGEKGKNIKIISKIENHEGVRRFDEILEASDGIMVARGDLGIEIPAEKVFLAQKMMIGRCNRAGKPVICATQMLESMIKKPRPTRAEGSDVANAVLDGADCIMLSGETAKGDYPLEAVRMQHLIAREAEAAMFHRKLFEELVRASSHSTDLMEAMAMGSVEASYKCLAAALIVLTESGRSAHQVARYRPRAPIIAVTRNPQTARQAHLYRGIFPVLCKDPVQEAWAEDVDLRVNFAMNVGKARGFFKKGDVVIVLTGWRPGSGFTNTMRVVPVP

## C[C@H](N)C(=O)O [alanine, L-alanine]
M2PYK [1]; alanine 200–300 µM in the presence of serine ∼0.6 mM
  M2PYK activity: ~65%
M2PYK [1]; alanine 200–300 µM, no serine
  M2PYK activity: ~10%
M2PYK [1]
  Ki: 62 µM
  IC50: 124 µM
M2PYK [2]
  oligomeric state of M2PYK at low protein concentration: predominantly tetrameric
M2PYK [3]
  Conformation of M2PYK tetramer in co-crystal structure: T-state
M2PYK [4]
  mode of inhibition of M2PYK: allosteric uncompetitive inhibitors
M2PYK [5]
  effect on M2PYK oligomerisation (tetramer versus monomer): stabilised tetramers over monomers

## N[C@@H](Cc1c[nH]c2ccccc12)C(=O)O [tryptophan, L-tryptophan]
M2PYK [1]
  Ki: 222 µM
  IC50: 445 µM
M2PYK [2]
  oligomeric state of M2PYK at low protein concentration: predominantly tetrameric
M2PYK [3]
  Conformation of M2PYK tetramer in co-crystal structure: T-state
M2PYK [4]
  mode of inhibition of M2PYK: allosteric uncompetitive inhibitors
M2PYK [5]
  effect on M2PYK oligomerisation (tetramer versus monomer): stabilised tetramers over monomers

## fructose 1,6-bisphosphate [FBP, reference compound]
M2PYK [6]
  effect on M2PYK activity in end-point assay: showed activation
M1PYK [7]
  regulatory effect on M1PYK activity: little or no regulatory effect
M2PYK [8]
  activation of M2PYK activity: ~40%
M2PYK [9]
  effect on M2PYK oligomerisation: stabilised the tetrameric form
Cell proliferation
  effect on cell proliferation: inhibits cell proliferation

## NCC(=O)O [glycine]
M1PYK [7]
  inhibition of M1PYK activity: 10%

## N[C@@H](Cc1c[nH]cn1)C(=O)O [histidine]
M2PYK [8]
  M2PYK activity normalised to activity in absence of ligands (100%): higher than 120%
  activation of M2PYK activity: ~30%

## NCCCC[C@H](N)C(=O)O [lysine]
M1PYK [7]
  inhibition of M1PYK activity: 10%

## N[C@@H](Cc1ccccc1)C(=O)O [phenylalanine, L-phenylalanine]
M2PYK [1]
  Ki: 205 µM
  IC50: 410 µM
M2PYK [1]; phenylalanine at ∼0.2 mM, no serine
  M2PYK activity: ~65%
M2PYK [1]; phenylalanine ∼0.2 mM in the presence of 0.6 mM serine
  M2PYK activity: nearly full activity
M1PYK [10]
  regulatory effect on M1PYK enzymatic activity: non-competitive inhibition
M2PYK [2]
  oligomeric state of M2PYK at low protein concentration: predominantly tetrameric
M2PYK [3]
  Conformation of M2PYK tetramer in co-crystal structure: T-state
M2PYK [4]
  mode of inhibition of M2PYK: allosteric uncompetitive inhibitors
M2PYK [5]
  effect on M2PYK oligomerisation (tetramer versus monomer): stabilised tetramers over monomers
M1PYK [7]
  inhibition of M1PYK activity: 10%
Cell proliferation
  effect on cell proliferation: favours cell proliferation

## N[C@@H](CO)C(=O)O [serine, L-serine]
M2PYK [6]
  effect on M2PYK activity in end-point assay: showed activation
M2PYK [2]
  oligomeric state of M2PYK at low protein concentration: predominantly tetrameric
M2PYK [3]
  Conformation of M2PYK tetramer in co-crystal structure: R-state
M2PYK [5]
  effect on M2PYK oligomerisation (tetramer versus monomer): stabilised tetramers over monomers
M2PYK [8]
  M2PYK activity normalised to activity in absence of ligands (100%): higher than 120%
  activation of M2PYK activity: ~30%

## N=C(N)NCCC[C@H](N)C(=O)O [arginine]
M1PYK [7]
  inhibition of M1PYK activity: 10%

Reference: article PMC5980995, “An allostatic mechanism for M2 pyruvate kinase as an amino-acid sensor” (Biochemical Journal, 2018)
